Test results taken from patent US8044035B2, “Pharmaceutical compositions of pyrimidine-2,4,6-triones” (priority 2004, dated 2011).
Where two headings read alike, the source gives them in different places.

Legend:
[1] = Solubility of various trioxopyrimidines in the presence of HPβCD; assay type: physicochemical; conditions: HPβCD solution, 37 °C, aqueous with cosolvent or surfactant or cyclodextrin, thermodynamic from solid, read-out: Concentration (solubility)
Experimental: 1.1 Weigh 20 mg of compound I. Add 2 ml of solution of HPβCD 200 mM. Stir for 24 h at 37° C. Filter in Millipore filter Millex HV 0.45 μm. The solution obtained after filtration contains the complex compound I-CD in solution.
1.2. Weigh 2.5 mg of compound I. Add 2 ml of solution of HPβCD 200 mM. Stir at 37° C. for 24 h or until compound I is completely dissolved. The solution obtained in this way contains the complex compound I-CD.
At the time of a complex formation, compound I, practically insoluble in water (<0.6 μg/ml, MW: 485), solubilizes dramatically. The increase in the solubility of compound I is thus proof of a complex formation between Compound I and the CD. Complex formation and achievement of the equilibrium is found at 20% after 1 day, 40% after 4 days, and 100% after 7 days. The solubility diagrams (FIG. 1) are carried out by adding an excess of compound I to the CD solutions of increasing concentration. After 7 days of stirring in thermostatically controlled baths at 37° C., these solutions are filtered and the solubilized compound I quantity is dosed by HPLC. The βCD and the γCD as well as their synthetic derivatives have allowed complexes with compound I to be formed. The β-CD and the HPβCD come from ROQUETTE (France), the RMβCD and the γCD have been supplied by Wacker (Germany).
The flasks containing compound I and the cyclodextrins are placed being stirred in thermostatically controlled baths at 37° C. for 7 days, so that the complexation balance is reached. After this time, the suspensions are filtered with the help of a milli-pore filter 0.22 μm in PVDF and the filtrate is dissolved in DMSO in the mobile phase to obtain concentration samples situating themselves on the calibrating line. They are then dosed thanks to the validated HPLC method, described below.
Solubility is investigated according to Examples 1 and 2.

[2] = Differential solubility in acetonitrile of free and complexed compound I; assay type: physicochemical
Excerpt: Compound I has different solubility when it is in the complex form or not. […] In these conditions the included drug remains trapped and becomes insoluble in the solvent. This technique of differential solubility between compound I in the free or in the complexed form can be applied to evaluate the percentage of complexation.

Molecule | solubility ([1]; HPβCD 10 mM) | solubility ([1]; HPβCD 25 mM) | solubility ([1]; HPβCD 50 mM) | solubility ([1]; HPβCD 100 mM) | solubility ([1]; HPβCD 200 mM) | Solubility in acetonitrile [2]
O=C1NC(=O)C(c2ccc(Oc3ccc(Cl)cc3)cc2)(N2CCN(c3ncccn3)CC2)C(=O)N1 [Compound III, 5-[4-(4-Chloro-phenoxy)-phenyl]-5-(4-pyrimidin-2-yl-piperazin-1-yl)-pyrimidine-2,4,6-trione] | 800 µg/mL | 2400 µg/mL | 3100 µg/mL | 6100 µg/mL | 9500 µg/mL | –
Hydroxypropyl β-cyclodextrin [HP-β-CD] | – | – | – | – | – | insoluble
O=C1NC(=O)C(c2ccc(Oc3ccc(Br)cc3)cc2)(N2CCN(c3ncccn3)CC2)C(=O)N1 [Compound V, 5-[4-(4-Bromo-phenoxy)-phenyl]-5-(4-pyrimidin-2-yl-piperazin-1-yl)-pyrimidine-2,4,6-trione] | 800 µg/mL | 2400 µg/mL | 5400 µg/mL | 6600 µg/mL | 9900 µg/mL | –
O=C1NC(=O)C(c2ccc(Oc3ccccc3)cc2)(N2CCN(c3ncccn3)CC2)C(=O)N1 [Compound II, 5-(4-Phenoxy-phenyl)-5-(4-pyrimidin-2-yl-piperazin-1-yl)-pyrimidine-2,4,6-trione] | 1300 µg/mL | 3400 µg/mL | 3800 µg/mL | 5900 µg/mL | 9300 µg/mL | –
O=C1NC(=O)C(c2ccc(Oc3ccc(Cl)c(Cl)c3)cc2)(N2CCN(c3ncccn3)CC2)C(=O)N1 [Compound IV, 5-[4-(3,4-Dichloro-phenoxy)-phenyl]-5-(4-pyrimidin-2-yl-piperazin-1-yl)-pyrimidine-2,4,6-trione] | 100 µg/mL | 200 µg/mL | 900 µg/mL | 2700 µg/mL | 7900 µg/mL | –
